In ChEMBL document CHEMBL1201862, “PubChem BioAssay data set” (2004):
The source made the active and inactive calls.

Legend:
[1] = target: Peroxisome proliferator-activated receptor gamma/Nuclear receptor coactivator 1 (Homo sapiens, UniProt P37231); format: functional;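 also: agonist potency as compounds enhance coactivator SRC-1 recruitment to PPARgamma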
[2] = target: Peroxisome proliferator-activated receptor gamma/Nuclear receptor coactivator 3 (Homo sapiens, UniProt P37231); format: functional;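 also: agonist potency for raising coactivator recruitment to the receptor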
[3] = target: Peroxisome proliferator-activated receptor gamma/Nuclear receptor coactivator 2 (Homo sapiens, UniProt P37231); format: functional;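 also: agonist potency for raising coactivator recruitment to the receptor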
[4] = target: DNA dC->dU-editing enzyme APOBEC-3G (Homo sapiens, UniProt Q9HC16); test: Dose Response confirmation of small molecule APOBEC3G DNA Deaminase Inhibitors via a fluorescence-based single-stranded DNA deaminase assay. [Related pubchem assays (depositor defined):AID493012, AID493028]; format: functional
[5] = target: DNA dC->dU-editing enzyme APOBEC-3A (Homo sapiens, UniProt P31941); test: A3A deaminase inhibition for selectivity – biochemical, dose response (AID 504722); format: functional
[6] = HEK-293T cell viability reduction – luminescence, B-cell screen hits, cytotoxicity control for BCR NF-kB inhibitor project, dose response (AID 489021); format: functional, cell-based;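 also: HEK-293T cells carrying an NF-kB luciferase reporter; cells exposed to compound for about 14 hours before viability readout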
[7] = target: Luciferin 4-monooxygenase (Photinus pyralis, UniProt P08659); test: Counter Screen for Luciferase-based Assay Positives. [Related pubchem assays: 620, 618, 411 ]
[8] = system: HEK293; test: EBV LMP1 TES2 canonical NF-kB signalling blockers – cell-based, HEK293, luciferase, cherry-pick, dose response (AID 588343); format: functional; conditions: Homo sapiens
[9] = system: HT-1080; test: HT1080 cell viability loss – fluorescence readout (AID 620); format: functional, cell-based; conditions: Homo sapiens
[10] = target: Glyceraldehyde-3-phosphate dehydrogenase (Homo sapiens, UniProt P04406)
[11] = target: Alkaline phosphatase, placental type (Homo sapiens, UniProt P05187); test: human placental alkaline phosphatase inhibition – biochemical, luminescence, confirmation (AID 1512); format: functional
[12] = target: T1, Alkaline phosphatase, tissue-nonspecific isozyme (Homo sapiens, UniProt P05186); test: potency against alkaline phosphatase TNAP – biochemical, luminescent, dose response, SAR follow-up (AID 1056)
T1 sequence (P05186 whole entry): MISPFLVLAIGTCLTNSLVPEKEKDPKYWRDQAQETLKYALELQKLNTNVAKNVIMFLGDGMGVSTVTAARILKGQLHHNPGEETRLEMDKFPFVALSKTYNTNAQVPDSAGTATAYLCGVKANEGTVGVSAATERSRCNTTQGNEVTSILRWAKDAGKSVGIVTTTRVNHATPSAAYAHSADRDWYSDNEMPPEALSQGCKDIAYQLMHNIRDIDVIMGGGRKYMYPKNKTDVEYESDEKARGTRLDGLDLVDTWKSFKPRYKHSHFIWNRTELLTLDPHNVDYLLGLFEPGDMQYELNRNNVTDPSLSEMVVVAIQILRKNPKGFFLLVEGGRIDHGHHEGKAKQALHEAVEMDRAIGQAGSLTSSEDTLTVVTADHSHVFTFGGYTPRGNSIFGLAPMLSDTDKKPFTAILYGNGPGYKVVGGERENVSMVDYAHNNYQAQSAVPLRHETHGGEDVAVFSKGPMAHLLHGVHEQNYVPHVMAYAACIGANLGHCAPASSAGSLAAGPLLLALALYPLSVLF

[13] = target: G-protein coupled receptor 55 (Homo sapiens, UniProt Q9Y2T6); test: inhibition of LPI-stimulated GPR55 beta-arrestin translocation – imaging, U2OS, beta-arrestin-GFP, LPI agonist, primary screen (AID 2013); format: functional;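 also: antagonist potency measured as reduced agonist-driven arrestin aggregation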
[14] = Luminescence Cell-Based Dose Retest to Confirm Inhibitors of Cancer Stem Cells. [Related pubchem assays (depositor defined):AID2717, AID2721]; format: functional; conditions: Homo sapiens
[15] = viability of PTEN-deleted HCT116 cells – cell-based, HCT116 PTEN knockout, dose response (AID 1047); format: functional;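 also: HCT116 colon tumor cells with PTEN knocked out; cells exposed to compound for 60 hours before readout; potency for loss of cell viability measured by luminescence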
[16] = cells; format: functional
[17] = viability of HCT116 lacking mutant beta-catenin – cell-based, human colon tumor, dose response (AID 1045); format: functional;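 also: HCT116 colon tumor cells with beta catenin knocked out; cells exposed to compound for 60 hours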
[18] = target: T2, Protein RecA (Mycobacterium tuberculosis, UniProt P9WHJ3); test: Fluorescence Cell-Free Homogeneous Dose Retest to Identify Inhibitors of RecA-Intein Splicing Activity. [Related pubchem assays (depositor defined):AID2097, AID2223, AID489010, AID492950]; format: functional
T2 sequence (P9WHJ3 whole entry): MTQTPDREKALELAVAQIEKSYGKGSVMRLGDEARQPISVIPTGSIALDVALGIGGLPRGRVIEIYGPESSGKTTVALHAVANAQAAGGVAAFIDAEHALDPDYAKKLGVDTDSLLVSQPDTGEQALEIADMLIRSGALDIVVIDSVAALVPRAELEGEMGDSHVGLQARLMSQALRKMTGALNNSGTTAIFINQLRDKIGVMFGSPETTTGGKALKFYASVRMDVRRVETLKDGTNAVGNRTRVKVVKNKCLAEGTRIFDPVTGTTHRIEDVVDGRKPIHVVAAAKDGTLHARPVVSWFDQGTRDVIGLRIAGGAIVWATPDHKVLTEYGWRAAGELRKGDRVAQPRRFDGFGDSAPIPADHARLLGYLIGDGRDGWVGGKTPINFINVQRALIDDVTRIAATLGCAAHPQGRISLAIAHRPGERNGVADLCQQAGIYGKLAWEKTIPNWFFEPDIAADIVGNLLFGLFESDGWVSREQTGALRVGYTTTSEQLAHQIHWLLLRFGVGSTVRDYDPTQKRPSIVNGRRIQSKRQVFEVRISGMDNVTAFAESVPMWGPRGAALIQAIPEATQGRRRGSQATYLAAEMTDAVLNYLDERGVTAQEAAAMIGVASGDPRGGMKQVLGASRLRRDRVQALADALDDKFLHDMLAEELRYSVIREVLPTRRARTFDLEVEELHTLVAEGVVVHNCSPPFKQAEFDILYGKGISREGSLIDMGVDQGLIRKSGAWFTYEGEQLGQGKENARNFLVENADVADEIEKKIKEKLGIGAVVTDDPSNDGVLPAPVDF

[19] = target: T3, Replicative DNA helicase DnaB (Mycobacterium tuberculosis, UniProt P9WMR3); test: DnaB intein splicing inhibitors, dose response, biochemical, cell-free fluorescence (AID 449749); format: functional
T3 sequence (P9WMR3 whole entry): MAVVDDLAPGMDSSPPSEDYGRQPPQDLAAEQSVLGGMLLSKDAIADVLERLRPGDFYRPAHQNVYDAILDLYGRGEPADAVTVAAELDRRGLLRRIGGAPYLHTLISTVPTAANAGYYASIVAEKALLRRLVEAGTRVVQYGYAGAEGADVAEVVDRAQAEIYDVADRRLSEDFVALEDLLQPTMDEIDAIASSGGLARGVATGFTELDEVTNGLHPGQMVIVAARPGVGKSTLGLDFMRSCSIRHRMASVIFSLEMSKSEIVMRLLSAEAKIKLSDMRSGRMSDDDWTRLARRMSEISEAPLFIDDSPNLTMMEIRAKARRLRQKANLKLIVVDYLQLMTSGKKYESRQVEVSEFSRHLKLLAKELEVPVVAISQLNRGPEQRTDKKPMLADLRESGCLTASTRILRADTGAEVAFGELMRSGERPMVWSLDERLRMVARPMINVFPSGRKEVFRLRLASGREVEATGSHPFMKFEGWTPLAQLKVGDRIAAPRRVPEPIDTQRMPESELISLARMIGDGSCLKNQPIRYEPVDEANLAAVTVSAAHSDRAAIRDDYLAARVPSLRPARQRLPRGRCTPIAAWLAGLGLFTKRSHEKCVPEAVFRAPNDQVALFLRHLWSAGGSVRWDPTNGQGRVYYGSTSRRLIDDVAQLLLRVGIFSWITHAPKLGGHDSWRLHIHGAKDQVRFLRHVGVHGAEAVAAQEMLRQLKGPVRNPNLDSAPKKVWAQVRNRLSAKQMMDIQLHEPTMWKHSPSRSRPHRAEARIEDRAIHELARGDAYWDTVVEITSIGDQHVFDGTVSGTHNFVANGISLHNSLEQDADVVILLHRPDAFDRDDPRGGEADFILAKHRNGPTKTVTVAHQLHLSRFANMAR

[20] = inhibition of ARNT PAS-B/TACC3 complex formation – biochemical, AlphaScreen, cherry-picked samples, confirmation (AID 651703); format: functional, Homo sapiens;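 also: His-tagged ARNT PAS-B domain paired with GST-TACC3 E629A dimer coactivator fragment; potency of inhibitors that break up the complex and lower AlphaScreen signal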
[21] = target: T4, ORF 73 (Human herpesvirus 8, UniProt O40947); test: KSHV LANA DNA-binding disruption – biochemical, fluorescence polarization, cherry-picked samples, dose response (AID 504725); design: species or system Human gammaherpesvirus 8;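 also: fluorescence polarization of a labeled DNA duplex reporting LANA DNA binding; potency is for inhibitors that block LANA binding to the DNA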
T4 sequence (O40947 whole entry): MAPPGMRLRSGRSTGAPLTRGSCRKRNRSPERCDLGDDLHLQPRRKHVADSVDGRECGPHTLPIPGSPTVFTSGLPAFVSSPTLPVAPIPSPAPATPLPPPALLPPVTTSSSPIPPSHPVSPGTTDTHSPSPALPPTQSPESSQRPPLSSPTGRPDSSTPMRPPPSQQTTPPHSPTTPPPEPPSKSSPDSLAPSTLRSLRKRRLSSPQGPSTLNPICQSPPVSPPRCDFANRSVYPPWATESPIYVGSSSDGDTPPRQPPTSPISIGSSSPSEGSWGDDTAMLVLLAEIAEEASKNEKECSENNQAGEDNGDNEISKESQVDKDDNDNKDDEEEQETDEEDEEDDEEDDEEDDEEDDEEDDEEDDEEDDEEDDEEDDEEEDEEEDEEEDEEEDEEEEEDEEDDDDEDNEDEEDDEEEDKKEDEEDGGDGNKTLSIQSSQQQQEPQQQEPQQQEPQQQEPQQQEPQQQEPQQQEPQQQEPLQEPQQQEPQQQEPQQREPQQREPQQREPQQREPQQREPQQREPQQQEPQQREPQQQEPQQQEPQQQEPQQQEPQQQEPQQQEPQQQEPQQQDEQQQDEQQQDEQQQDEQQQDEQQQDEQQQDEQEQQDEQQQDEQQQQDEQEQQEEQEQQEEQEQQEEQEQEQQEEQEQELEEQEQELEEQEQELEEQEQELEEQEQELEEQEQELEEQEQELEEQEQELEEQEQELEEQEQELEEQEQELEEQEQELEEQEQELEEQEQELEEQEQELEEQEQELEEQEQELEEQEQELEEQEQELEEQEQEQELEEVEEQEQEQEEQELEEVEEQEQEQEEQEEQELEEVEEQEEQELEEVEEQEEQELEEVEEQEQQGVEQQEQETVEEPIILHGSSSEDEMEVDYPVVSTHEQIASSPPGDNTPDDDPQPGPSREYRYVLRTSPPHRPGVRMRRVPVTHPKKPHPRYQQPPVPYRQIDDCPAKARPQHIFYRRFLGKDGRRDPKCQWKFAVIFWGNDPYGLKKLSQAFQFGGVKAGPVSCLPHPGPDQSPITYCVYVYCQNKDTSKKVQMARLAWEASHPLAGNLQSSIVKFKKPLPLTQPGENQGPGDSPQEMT

Sequence of Alkaline phosphatase, placental type (P05187 whole entry): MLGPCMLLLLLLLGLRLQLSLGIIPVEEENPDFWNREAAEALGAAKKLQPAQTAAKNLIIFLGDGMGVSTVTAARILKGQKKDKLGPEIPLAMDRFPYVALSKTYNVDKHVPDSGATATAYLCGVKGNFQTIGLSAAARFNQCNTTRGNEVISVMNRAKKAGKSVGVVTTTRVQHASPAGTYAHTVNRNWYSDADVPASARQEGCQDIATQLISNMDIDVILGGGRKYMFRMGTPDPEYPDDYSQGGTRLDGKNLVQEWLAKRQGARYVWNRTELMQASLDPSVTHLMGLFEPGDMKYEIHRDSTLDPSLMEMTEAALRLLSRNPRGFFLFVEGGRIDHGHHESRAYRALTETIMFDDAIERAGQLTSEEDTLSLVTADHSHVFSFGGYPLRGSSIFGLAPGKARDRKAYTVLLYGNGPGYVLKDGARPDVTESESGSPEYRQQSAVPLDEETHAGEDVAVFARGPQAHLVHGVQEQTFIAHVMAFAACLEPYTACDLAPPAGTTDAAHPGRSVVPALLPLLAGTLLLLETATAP
Sequence of Peroxisome proliferator-activated receptor gamma/Nuclear receptor coactivator 1 (P37231 whole entry): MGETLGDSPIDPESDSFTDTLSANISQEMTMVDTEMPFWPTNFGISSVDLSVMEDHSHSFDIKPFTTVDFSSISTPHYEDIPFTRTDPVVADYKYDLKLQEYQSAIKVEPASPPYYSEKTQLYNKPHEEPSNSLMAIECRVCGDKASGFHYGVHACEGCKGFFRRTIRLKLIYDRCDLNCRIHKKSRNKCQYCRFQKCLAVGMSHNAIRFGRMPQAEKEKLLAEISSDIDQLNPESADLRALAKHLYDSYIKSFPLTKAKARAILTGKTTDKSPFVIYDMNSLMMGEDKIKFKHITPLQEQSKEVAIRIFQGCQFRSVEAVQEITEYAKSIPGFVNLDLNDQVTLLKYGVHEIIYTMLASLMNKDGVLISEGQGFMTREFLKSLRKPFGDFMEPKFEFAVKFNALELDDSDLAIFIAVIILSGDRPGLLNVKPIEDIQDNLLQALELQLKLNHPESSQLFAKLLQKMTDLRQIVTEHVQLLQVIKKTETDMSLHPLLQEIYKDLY
Sequence of Peroxisome proliferator-activated receptor gamma/Nuclear receptor coactivator 1 (Q15788 whole entry, further chain): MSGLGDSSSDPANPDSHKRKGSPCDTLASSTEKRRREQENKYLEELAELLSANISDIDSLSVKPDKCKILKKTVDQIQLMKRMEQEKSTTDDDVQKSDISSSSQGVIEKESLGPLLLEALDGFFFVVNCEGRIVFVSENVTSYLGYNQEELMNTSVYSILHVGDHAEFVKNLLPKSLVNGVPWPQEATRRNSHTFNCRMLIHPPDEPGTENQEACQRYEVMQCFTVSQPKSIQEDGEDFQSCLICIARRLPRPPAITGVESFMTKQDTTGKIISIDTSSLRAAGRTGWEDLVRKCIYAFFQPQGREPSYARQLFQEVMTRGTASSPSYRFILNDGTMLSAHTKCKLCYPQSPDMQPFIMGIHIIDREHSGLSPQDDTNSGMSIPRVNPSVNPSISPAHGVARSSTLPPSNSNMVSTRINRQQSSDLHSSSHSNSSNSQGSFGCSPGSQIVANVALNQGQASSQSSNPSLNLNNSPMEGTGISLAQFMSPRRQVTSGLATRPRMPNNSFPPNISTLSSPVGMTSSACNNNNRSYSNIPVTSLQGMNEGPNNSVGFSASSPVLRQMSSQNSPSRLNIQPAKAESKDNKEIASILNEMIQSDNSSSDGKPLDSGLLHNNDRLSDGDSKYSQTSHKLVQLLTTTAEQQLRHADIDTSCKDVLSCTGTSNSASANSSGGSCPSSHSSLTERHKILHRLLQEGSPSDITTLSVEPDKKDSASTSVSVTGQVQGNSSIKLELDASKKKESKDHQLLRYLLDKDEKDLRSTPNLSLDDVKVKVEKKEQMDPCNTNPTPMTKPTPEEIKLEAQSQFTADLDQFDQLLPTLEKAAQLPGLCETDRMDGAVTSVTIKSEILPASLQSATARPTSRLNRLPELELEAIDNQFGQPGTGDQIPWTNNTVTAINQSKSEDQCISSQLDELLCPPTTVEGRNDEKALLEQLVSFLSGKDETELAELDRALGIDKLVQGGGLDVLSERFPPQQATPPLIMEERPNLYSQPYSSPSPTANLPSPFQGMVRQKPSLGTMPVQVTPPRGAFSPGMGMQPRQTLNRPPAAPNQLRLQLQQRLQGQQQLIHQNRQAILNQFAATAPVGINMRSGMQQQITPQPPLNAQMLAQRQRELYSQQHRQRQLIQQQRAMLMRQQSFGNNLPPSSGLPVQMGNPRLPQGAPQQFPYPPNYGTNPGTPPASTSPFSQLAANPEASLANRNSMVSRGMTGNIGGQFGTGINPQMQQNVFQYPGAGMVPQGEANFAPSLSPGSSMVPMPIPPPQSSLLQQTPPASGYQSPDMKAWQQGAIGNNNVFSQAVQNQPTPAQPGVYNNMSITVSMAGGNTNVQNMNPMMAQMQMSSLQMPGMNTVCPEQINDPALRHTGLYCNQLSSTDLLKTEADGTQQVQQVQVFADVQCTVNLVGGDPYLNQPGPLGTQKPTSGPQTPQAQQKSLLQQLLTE
Sequence of Peroxisome proliferator-activated receptor gamma/Nuclear receptor coactivator 2 (P37231 whole entry): as the sequence (P37231 whole entry) above
Sequence of Peroxisome proliferator-activated receptor gamma/Nuclear receptor coactivator 2 (Q15596 whole entry, further chain): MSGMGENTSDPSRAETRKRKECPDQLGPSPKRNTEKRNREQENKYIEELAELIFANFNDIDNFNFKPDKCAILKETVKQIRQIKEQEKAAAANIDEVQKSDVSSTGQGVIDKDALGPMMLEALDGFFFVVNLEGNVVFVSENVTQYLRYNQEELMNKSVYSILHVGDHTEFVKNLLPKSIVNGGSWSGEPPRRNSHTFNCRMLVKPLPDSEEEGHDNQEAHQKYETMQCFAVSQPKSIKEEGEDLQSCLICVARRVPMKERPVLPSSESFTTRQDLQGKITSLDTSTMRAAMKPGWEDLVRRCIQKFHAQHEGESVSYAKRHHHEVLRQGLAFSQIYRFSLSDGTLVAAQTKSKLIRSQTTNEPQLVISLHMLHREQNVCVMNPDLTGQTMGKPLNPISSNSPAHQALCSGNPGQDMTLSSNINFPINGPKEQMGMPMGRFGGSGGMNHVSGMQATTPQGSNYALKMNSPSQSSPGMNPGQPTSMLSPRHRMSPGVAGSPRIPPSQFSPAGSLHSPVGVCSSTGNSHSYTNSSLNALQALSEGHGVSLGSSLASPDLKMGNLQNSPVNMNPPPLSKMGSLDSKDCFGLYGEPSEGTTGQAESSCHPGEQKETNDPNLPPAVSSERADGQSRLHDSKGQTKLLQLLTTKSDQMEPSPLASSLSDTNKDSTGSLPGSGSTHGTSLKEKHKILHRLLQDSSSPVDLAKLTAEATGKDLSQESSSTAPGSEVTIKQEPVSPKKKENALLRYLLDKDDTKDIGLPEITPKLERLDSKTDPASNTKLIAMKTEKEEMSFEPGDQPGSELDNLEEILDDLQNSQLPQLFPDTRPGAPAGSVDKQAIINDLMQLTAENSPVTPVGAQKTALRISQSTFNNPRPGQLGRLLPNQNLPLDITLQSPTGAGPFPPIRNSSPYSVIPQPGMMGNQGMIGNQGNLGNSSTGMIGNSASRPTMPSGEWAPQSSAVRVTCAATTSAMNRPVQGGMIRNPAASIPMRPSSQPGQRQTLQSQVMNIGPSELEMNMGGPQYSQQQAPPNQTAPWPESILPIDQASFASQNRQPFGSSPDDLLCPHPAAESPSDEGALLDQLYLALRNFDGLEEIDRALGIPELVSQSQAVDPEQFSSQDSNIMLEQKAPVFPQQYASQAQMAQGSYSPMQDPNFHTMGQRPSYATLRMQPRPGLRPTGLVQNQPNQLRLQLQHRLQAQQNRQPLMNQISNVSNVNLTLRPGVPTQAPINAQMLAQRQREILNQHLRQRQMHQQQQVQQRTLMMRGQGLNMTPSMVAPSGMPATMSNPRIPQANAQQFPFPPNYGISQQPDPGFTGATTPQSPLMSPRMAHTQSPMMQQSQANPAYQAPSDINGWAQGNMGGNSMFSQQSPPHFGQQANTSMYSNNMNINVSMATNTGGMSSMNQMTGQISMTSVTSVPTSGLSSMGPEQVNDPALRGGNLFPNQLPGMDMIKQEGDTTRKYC
Sequence of DNA dC->dU-editing enzyme APOBEC-3G (Q9HC16 whole entry): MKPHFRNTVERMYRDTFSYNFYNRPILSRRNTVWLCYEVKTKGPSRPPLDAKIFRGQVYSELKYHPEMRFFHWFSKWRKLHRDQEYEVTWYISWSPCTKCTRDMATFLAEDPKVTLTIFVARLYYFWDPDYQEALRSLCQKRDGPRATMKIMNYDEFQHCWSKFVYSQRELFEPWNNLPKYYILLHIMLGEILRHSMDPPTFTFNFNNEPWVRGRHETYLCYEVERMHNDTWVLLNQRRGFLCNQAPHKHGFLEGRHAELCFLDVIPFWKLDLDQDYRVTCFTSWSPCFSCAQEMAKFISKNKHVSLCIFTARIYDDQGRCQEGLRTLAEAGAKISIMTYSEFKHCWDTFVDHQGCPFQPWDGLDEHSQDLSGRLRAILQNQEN
Sequence of DNA dC->dU-editing enzyme APOBEC-3A (P31941 whole entry): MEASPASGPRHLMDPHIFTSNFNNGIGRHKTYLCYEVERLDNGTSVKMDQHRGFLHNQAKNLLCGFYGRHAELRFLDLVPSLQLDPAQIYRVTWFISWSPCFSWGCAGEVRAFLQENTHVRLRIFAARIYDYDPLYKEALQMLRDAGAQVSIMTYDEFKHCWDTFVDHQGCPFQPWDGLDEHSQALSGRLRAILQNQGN

CS(=O)(=O)N(CC(=O)NCc1ccncc1)Cc1ccc(Cl)cc1
EC50 [1]: > 79.4 µM (not active) | EC50 [2]: > 79.4 µM (not active) | EC50 [3]: > 79.4 µM (not active)

CC(=O)NC1=NC(=O)/C(=C/c2cc(C)n(-c3ccc(NC(C)=O)cc3)c2C)S1
EC50 [1]: > 79.4 µM (not active) | EC50 [2]: > 79.4 µM (not active) | EC50 [3]: > 79.4 µM (not active)

CCOC(=O)c1cc(C)nc(S)c1C#N
IC50 [4]: 4.65 µM (active) | IC50 [5]: > 100 µM (inactive)

CCCCCC/C=C/c1ccc(OC)c([C@H]2[C@H]3C=CC[C@@H](C)[C@@H]3C(=O)N2Cc2ccccc2)c1
IC50 [6]: > 80 µM (inactive)

Cc1[nH]c2nc(S)nc-2cc1Br
IC50 [4]: 1.98 µM (active) | IC50 [5]: > 100 µM (inactive)

O=C(CN1C(=O)c2ccccc2S1(=O)=O)c1ccccc1
EC50 [7]: > 100 µM (not active) | AC50 [8]: 1.36 µM (active) | EC50 [9]: > 50 µM (not active)

Cc1ccc(-c2nc(N)nn2-c2ccccc2)cc1
IC50 [10]: > 100 µM (not active) | IC50 [11]: > 100 µM (inactive) | IC50 [12]: > 100 µM (inactive)

Cc1c(CCOC(=O)c2ccc(N3CCOCC3)c([N+](=O)[O-])c2)sc[n+]1CC#N
IC50 [13]: 5.68 µM (active)

O=C(Nc1ccc(NC(=O)c2ccco2)nc1)c1ccccn1
EC50 [7]: 9.44 µM (active) | EC50 [9]: > 50 µM (not active)

CC(C)Cn1c(-c2ccccc2F)n[nH]c1=S
IC50 [4]: 5.39 µM (active) | IC50 [5]: > 100 µM (inactive)

Cc1noc(C)c1CN(C(=S)NC1CC2CCC1C2)c1ccccc1 (stereo not given)
IC50 [13]: 3.74 µM (active)

Cc1n[nH]c2c1C(c1ccc(-c3ccc(Cl)cc3)o1)C(C#N)=C(N)O2 (stereo not given)
AC50 [14]: 6.86 µM (active) | EC50 [1]: > 79.4 µM (not active) | EC50 [15]: 10.6 µM (active) | IC50 [16]: 39.7 µM (active) | EC50 [17]: 9.79 µM (active) | EC50 [2]: > 79.4 µM (not active) | EC50 [18]: 28.6 µM (active) | EC50 [3]: > 79.4 µM (not active) | AC50 [19]: 41.8 µM (active)

O=C(C1CCC1)N1CCN(S(=O)(=O)c2ccc([N+](=O)[O-])cc2)CC1
IC50 [6]: > 80 µM (inactive)

O=C(CSc1nnc(-c2ccncc2)[nH]1)c1ccc(O)c(O)c1
IC50 [11]: 6.95 µM (active) | IC50 [12]: 6.53 µM (active)

CC1(C)Oc2ccc([N+](=O)[O-])cc2O1
IC50 [11]: > 100 µM (inactive) | IC50 [12]: > 100 µM (inactive)

C/C(=N/NC(=O)c1ccncc1)c1cc2ccc(O)cc2oc1=O
AC50 [20]: 116 µM (active) | AC50 [21]: 0.544 µM (active)

COc1ccc(/C=N\NC(=O)c2sccc2C)cc1Cn1nc(C)cc1C
IC50 [6]: > 80 µM (inactive)
